Results as given in US20250339470A1, “METHODS AND COMPOSITIONS FOR MATURING CARDIOMYOCYTES” (President and Fellows of Harvard College, priority 2024, published 2025).
“Also recorded” adds a separate entry of the source.

Key:
hiPSC-CMs = assay: qPCR mRNA expression of hiPSC-CMs cultured 7 days on SAP-coated plates; assay type: cell-based, human; details: 7 days on 0.25% SAP coating; control Geltrex
Method: At day 14 of cardiomyocyte differentiation, completion of the protocol was confirmed. Fully beating cardiomyocyte embryoid bodies were dissociated using the cardiomyocyte dissociation kit (STEMdiff Cardiomyocyte Dissociation Kit, […] Technologies, Canada) and reseeded (1.2 million cells/well) onto 6-well plates, which were prepared as follows. Each 6-well plate had 3 wells coated with Geltrex (control) and 3 wells coated with one of four self-assembling peptides (SAPs) at 0.25% concentration such that the differentiated cardiomyocytes would be cultured with the SAP. Specifically, the following SAPs were used in this study: RADA16, IEIK13, KLD12, and QLEL12. The cells were maintained for further in vitro analysis. Total RNA was extracted 7 days after initial exposure to each SAP to analyze messenger RNA (mRNA) expression of cardiomyocyte genes characteristics of an adult-like state. The inventors used Tryzol (TRIzol Reagent, Invitrogen, USA) to extract total RNA and a purification kit (E.Z.N.A. Total RNA kit I, Omega Bio-tec, Inc., Georgia, USA) according to the manufacturer's instructions. After quantification, RNA was reverse transcribed to cDNA using the High-Capacity cDNA Reverse Transcription Kit (Applied Biosystems) according to the manufacturer's instructions. Quantitative Polymerase Chain Reaction (qPCR) was performed in triplicate for each sample using the iTaq Universal SYBR Green Supermix (Bio-Rad) and the primer pairs (table S3) with a Bio-Rad CFX384 Real-Time thermal cycler. Double delta analyses were performed to compute the relative mRNA expression of each target gene using glyceraldehyde-3-phosphate dehydrogenase (GAPDH) as a housekeeping control gene.

[1] = system: hiPSC-CMs transplanted into rat hearts; assay: Electrophysiological recording with flexible mesh nanoelectronics (Langendorff); assay type: in vivo; details: 3 months after transplantation into the athymic rat heart
Method: The inventors used RNU nude rats (8-10 weeks old, male, 250-350 g). Rats received cyclosporine injections (15 mg/kg) as an immunosuppressant a day before the injection and every day after surgery. […] After at least five days of observation in healthy conditions, the rats were applied to the electrophysiological study. […] As a pre-surgical analgesic, buprenorphine (0.1 mg/kg) was administered to the rats before anesthesia. […] The distal ascending aorta was ligated with a 4-0 silk suture, followed by infusion of heparin to coronary arteries, with the right atrium cut open to infuse efficiently with decreased right atrium pressure. […] The temperature of the circulated solution, the chamber of the Langendorff, and the heart rate were monitored with a data acquisition system (Bridge Amp (PowerLab 8/30, ADInstruments, USA), Bio Amp (Product code: FE231, ADInstruments, USA), Spring Clip Electrodes (Product code: MLA1214, AD ADInstruments, USA), and LabChart software v8.1.20) until the heart beating became stable. […] The inventors analyzed the electrophysiological data with a customized Python script. […] The inventors then detected electrical spikes using “find_peaks” from Scipy. The inventors manually curated the detected spikes into host sinus rhythm, automaticity/arrhythmia rhythm, and noises. […] The spikes were recorded at both the injection and reference sites. • 2. […]

[2] = system: hiPSC-CMs injected into the rat left ventricle wall; assay: Sarcomere organization (SOTA), orientation and length of injected hiPSC-CMs; assay type: in vivo; details: 7 days post-injection
Method: The sections were stained with anti-cardiac troponin T antibody (Alexa Fluor 647 Mouse Anti-Cardiac Troponin T (cat #565744): cTnT, BD Pharmagen. 1:200), anti-human troponin I antibody (Recombinant Anti-Cardiac Troponin I antibody [EP1106Y] (ab52862): hTnI, Abcam 1:250), and DAPI as performed in the immunofluorescent staining. […] In this study, the inventors applied SarcOmere Texture Analysis (SOTA) to quantify sarcomere organization (17). SOTA was conducted by independent investigators who had no prior knowledge of the sample information. This methodological approach minimized potential biases and enhanced the reliability of the results.
hiPSC-CMs were stained with hTnI to identify myofilaments. […]
Sarcomere length was measured as the distance between hTnI-stained Z-lines from cardiomyocytes with visible sarcomere structures. An average of 10 sarcomeres from each sample was calculated on an interpolated YZ projection to account for spatial distribution across different regions of the image (45). […]
The inventors performed the automated analysis of sarcomere organization using SOTA, which was previously validated in endogenous, direct reprogrammed, and induced pluripotent-derived cardiomyocytes (17). […] The inventors also calculated the primary sarcomere orientation using the SOTA angle of peak prominence. […]

Substance | expression of KCNJ2 (hiPSC-CMs) | expression of GJA1 (hiPSC-CMs) | expression of NANOG (hiPSC-CMs) | ratio of MYH7 mRNA expression to MYH6 expression (hiPSC-CMs) | ratio of TNNI3 to TNNI1 expression (hiPSC-CMs) | ventricular bigeminy [1] | sarcomere length [2]
IEIK13 | significantly higher | – | – | – | – | – | –
KLD12 | significantly higher | – | – | – | – | – | –
RADA16 | significantly higher; also recorded: highest expression | significantly higher in the RADA16 group compared to all other SAP groups and the control group; also recorded: highest expression | significantly lower in the RADA16 and control groups than in the IEIK13 group; also recorded: no significant difference between the control and RADA16 group; also recorded: significantly declined | significantly higher in the RADA16 group than in the IEIK13 and QLEL12 groups; also recorded: not significantly different between the RADA16 and control groups nor the RADA16 and KLD12 groups; also recorded: most pronounced increase | higher TNNI3/TNNI1 expression ratio | not observed | not associated with a difference
